Measurements as given in US9133180B2, “Aurora and FLT3 kinases modulators” (SAREUM LIMITED, priority 2012, dated 2015).

Target: Aurora B kinase (Homo sapiens (Human), UniProt Q96GD4)
Assay: Aurora B kinase 33P-ATP filter assay (Reaction Biology Corp.)
Type: biochemical
Method: The ability of the compounds of the invention to inhibit FLT3 kinase and Aurora A and Aurora B kinases was determined using the assays described below.
Kinase assays were performed at Reaction Biology Corp., Malvern, Pa., USA, using the following general procedure:
1) Prepare indicated substrate in freshly prepared Base Reaction Buffer (20 mM Hepes pH 7.5, 10 mM MgCl2, 1 mM EGTA, 0.02% Brij35, 0.02 mg/ml BSA, 0.1 mM Na3VO4, 2 mM DTT, 1% DMSO).
2) Deliver cofactors (1.5 mM CaCl2, 16 ug/mL Calmodulin, 2 mM MnCl2) to the substrate solution above.
3) Deliver indicated kinase into the substrate solution and gently mix
4) Deliver varying concentrations of test compound in DMSO into the kinase reaction mixture.
5) Deliver ^33P-ATP (specific activity 0.01 µCi/µL final) into the reaction mixture to initiate the reaction.
6) Incubate kinase reaction for 120 min at room temperature.
7) Reactions are spotted onto P81 ion exchange filter paper (Whatman #3698-915)
8) Unbound phosphate is removed by washing filters extensively in 0.75% phosphoric acid.
9) ^33P signal was determined using Typhoon phosphorimagers (GE Healthcare).
Substrates: Kemptide=[H-LRRASLG] Abltide=[[…]]

Sequence of Aurora B kinase (Q96GD4 whole entry): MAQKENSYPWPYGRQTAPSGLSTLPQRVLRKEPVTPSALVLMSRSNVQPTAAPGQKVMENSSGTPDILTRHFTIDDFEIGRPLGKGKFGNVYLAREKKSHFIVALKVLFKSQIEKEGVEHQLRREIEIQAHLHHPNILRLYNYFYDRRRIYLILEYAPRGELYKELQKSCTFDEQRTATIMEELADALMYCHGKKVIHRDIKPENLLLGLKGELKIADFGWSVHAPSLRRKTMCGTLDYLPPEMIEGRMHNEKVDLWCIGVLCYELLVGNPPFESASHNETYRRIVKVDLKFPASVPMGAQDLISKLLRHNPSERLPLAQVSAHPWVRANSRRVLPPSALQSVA

`Cc1ccc2[nH]ccc2c1-c1nc(C(N)=O)c(-c2ccc(N3CCNC(C)(C)C3)cc2)o1` [Example 2, 2-(5-Methyl-1H-Indol-4-yl)-5-[4-(3,3-dimethyl-piperazin-1-yl)-phenyl]-oxazole-4-carboxylic acid amide] gave an IC50 of 5.9 nM.
